Experimental data published in patent US20230121771A1, “A PHARMACEUTICAL COMBINATION OF AN ARTEMISININ COMPOUND, 5-AMINOLEVULINIC ACID OR METHYL-5-AMINOLEVULINIC ACID AND A CHEMOTHERAPEUTIC AGENT” (JLP Health GmbH, priority 2020, published 2023).

Tests used:
Jurkat cells = assay: JC-1 staining of mitochondrial membrane potential; assay type: cell-based; details: 48 h, artemisinin 0.5 µM, 5-ALA 0.25 mM
Method: Cells were collected, washed with 1xPBS, incubated with 2 µM JC-1 in 1PBS (MitoProbe JC-1 Assay Kit-1, Invitrogen, M34152) for 35 min at 37° C., washed twice, and analysed using flow cytometry in the red (PE channel) and green (FITC channel) fluorescence spectrum.

[1] = test system: murine and human cancer cell lines; assay: Cell viability of artemisinin treated cancer cell lines in presence and absence of 5-ALA (Alamar Blue, 48 h); assay type: cell-based; details: 4T1, Mcf7, B16F10, 5-ALA 0.5 mM
Method: (§1) For dosage responses, cells were seeded in 96-wells (25.000/ 96-well, in triplicate -where indicated) and subjected to compounds for 48 h. Cell viability was assessed using automated cell counting (high-throughput flow cytometry), Alamar Blue staining (Invitrogen, DAL1100) or CellTiter-Glo Luminescent Assay (Promega, G7570, according to the manufacturer’s protocol) respectively.

[2] = test system: neuroblastoma cells (SHSY5Y), Jurkat and HL-60 cells; assay: ROS levels by Dihydroethidium (DHE) staining and flow cytometry in cell lines; assay type: cell-based; details: SHSY5Y and Jurkat cells; artemisinin 0.5 µM, 5-ALA 0.25 mM
Method: (§2) Treated cells were collected, washed with 1x HBSS (without Ca2+ and Mg2+), incubated with 1mM DHE (Dihydroethidium (Hydroethidine), Invitrogen, D11347) in 1x HBSS for 45 min at 37° C., washed twice and counterstained with DAPI or a viability dye (eBioscience™ Fixable Viability Dye eFluor™ 780, 65-0865-18) for 10 min on ice. Cells were then collected, strained and analysed using flow cytometry for DHE in the red fluorescent spectrum (PE channel).

mouse ESCs = assay: Cell survival of artemisinin treated mouse embryonic stem cells (Alamar Blue, 48 h); assay type: cell-based; details: artemisinin combined with acifluorfen or 5-ALA (0.5 mM)
Method: as §1

[3] = test system: Myc overexpressing tumor organoids; assay: ROS/DHE staining of dissociated CNS-PNET tumor organoids; assay type: cell-based, human; details: especially in GFP-positive cancer cells
Method: as §2
Cerebral (tumor) organoids were enzymatically and mechanically dissociated using 1x trypsin, 35-45 min incubation at 37° C., and gentle shaking. Organoids were singularised by careful resuspension, addition of differentiation medium and straining (Falcon Round-Bottom Tubes with Cell Strainer Cap, 5 mL, 35 µm nylon mesh cell strainer snap cap). Single cells in suspension were counterstained with DAPI or a viability dye (eBioscience™ Fixable Viability Dye eFluor™ 780, 65-0865-18), and analysed using flow cytometry (BD LSRFortessa HTS Cell Analyzer). The amounts of GFP-positive cells were analyzed.

With `NCC(=O)CCC(=O)O` [5-ALA, 5-amino-4-oxopentanoic acid] the “mitochondrial polarisation (ΔΨm, JC-1)” value (Jurkat cells) was “increased mitochondrial polarisation”, the “sensitivity to artemisinin under combinatorial treatment with 5-ALA” value [1] was “gained hypersensitive to artemisinin” and the “ROS levels (DHE staining, MFI)” value [2] was “triggered ROS”. For the same compound, the “susceptibility to artemisinin (cell survival)” value (mouse ESCs) was “increased the sensitivity to the anti-malarial compound” and the “ROS levels (DHE staining, FACS)” value [3] was “slightly induced ROS production”.
